Assay [1] concerns MV-4-11 (human myelomonocytic leukemia cells). Kind of assay: CCK-8 cell proliferation assay, MV-4-11. It is filed as cell-based. The conditions noted are these: MV4-11, 24 h incubation, 11 concentrations from 5000 nM, 3-fold, read-out: MV-4-11 cell proliferation IC50 (class). Here is the method: Test samples: the compounds of the present invention, having structures shown above.
MV-4-11 (human myelomonocytic leukemia cells) and NCI-H929 (human myeloma cells).
The compounds were dissolved in DMSO and diluted 3-fold in the 96-well plate to obtain stock solutions with 11 concentration gradients. Each cell was inoculated into a 96-well plate, and the diluted compound stock solution was added to the 96-well plate to obtain a series of 11 concentration gradients of compound solutions with final concentrations of 5000 nM starting and 3-fold gradient decreasing, wherein the final DMSO content was […]. There was a medium containing 1‰ DMSO in the negative control well. The treated cells were incubated at 37° C. with 5% CO2 and 95% humidity, wherein MV-4-11 were incubated for 24 h and NCI-H929 for 72 h. After incubation was completed, each well was added with 10 μL of CCK-8 reagent, incubated for 1-3 h at room temperature and placed in the microplate reader, and the absorbance was read at 450 nm.
The inhibition rate was calculated according to the following formula: […]
ODcmpd: compound absorbance; ODpositive: average value of the absorbance of positive control without compound; ODvehicle: average value of the absorbance of solvent vehicle control.
IC50 values were fitted using GraphPad 7.0 based on inhibition rates of compounds at different concentrations.
(In general: Formazan colour is commonly taken as a measure of viable cells.)

The target of assay [2] is CDK9/CycT1 (Homo sapiens, UniProt P50750). Kind of assay: ADP-Glo kinase assay on CDK enzymatic activity, CDK9/CycT1. It is filed as biochemical. Particulars: 10 concentrations from 10 μM, 4-fold, 60 min room temperature. A digest of the protocol:
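Enzyme activity was measured by ADP-Glo luminescence following 60 min turnover of CDK tide peptide at room temperature. Compounds spanned ten 4-fold dilutions from 10 μM final, with 0.5% DMSO.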
In general terms: ADP-Glo turns the ADP formed in a reaction into a luminescent signal.

Structures are written as SMILES. Some results are limits rather than exact numbers.

CDK9/CycT1, sequence (P50750 whole entry): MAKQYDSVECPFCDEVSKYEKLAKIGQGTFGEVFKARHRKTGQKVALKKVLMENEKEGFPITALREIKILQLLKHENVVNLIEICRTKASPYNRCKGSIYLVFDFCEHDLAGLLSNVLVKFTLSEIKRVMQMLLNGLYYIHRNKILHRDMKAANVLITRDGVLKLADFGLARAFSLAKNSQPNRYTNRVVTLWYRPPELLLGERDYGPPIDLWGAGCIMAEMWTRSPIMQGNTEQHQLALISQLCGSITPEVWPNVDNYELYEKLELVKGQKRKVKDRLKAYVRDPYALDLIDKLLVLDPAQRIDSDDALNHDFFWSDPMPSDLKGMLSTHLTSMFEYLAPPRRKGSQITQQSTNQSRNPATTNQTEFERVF
CDK9/CycT1, sequence (O60563 whole entry partner): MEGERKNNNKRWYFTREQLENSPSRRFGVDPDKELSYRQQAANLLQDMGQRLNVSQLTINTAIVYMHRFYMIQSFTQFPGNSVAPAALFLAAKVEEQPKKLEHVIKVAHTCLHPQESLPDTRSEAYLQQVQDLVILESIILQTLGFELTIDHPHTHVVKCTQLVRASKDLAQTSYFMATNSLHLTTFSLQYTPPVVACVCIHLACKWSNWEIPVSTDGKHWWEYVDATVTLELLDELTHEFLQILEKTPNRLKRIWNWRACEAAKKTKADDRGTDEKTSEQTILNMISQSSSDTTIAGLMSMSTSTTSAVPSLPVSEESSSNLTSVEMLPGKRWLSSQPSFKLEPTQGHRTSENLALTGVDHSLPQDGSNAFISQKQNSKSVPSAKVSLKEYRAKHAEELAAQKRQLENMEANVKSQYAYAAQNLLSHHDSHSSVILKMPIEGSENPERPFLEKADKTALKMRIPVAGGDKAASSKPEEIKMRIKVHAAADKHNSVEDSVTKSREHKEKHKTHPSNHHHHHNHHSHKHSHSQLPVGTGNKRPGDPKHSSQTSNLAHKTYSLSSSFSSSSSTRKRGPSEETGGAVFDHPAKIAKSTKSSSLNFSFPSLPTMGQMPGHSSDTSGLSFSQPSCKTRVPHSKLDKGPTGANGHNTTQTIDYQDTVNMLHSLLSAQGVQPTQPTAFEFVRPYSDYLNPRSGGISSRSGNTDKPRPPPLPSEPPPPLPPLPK

With `CC(C)Nc1nc(C#N)cc2cnc(N[C@@H]3CCCCNC3)nc12` [Compound C5, (R)-2-(azepan-3-ylamino)-8-(isopropylamino)pyrido[3,4-d]pyrimidine-6-carbonitrile], the IC50 in assay [1] is 400 to 1000 nM; in assay [2], 50 nM.
The like results for `CC(C)Nc1nc(C#N)cc2cnc(N[C@H]3CCOC3)nc12` [Compound 118, (S)-8-(isopropylamino)-2-((tetrahydrofuran-3-yl)amino)pyrido[3,4-d]pyrimidine-6-carbonitrile] were, in that order, more than 1000 nM and 12 nM.
`CC(C)(C)Nc1nc(C#N)cc2cnc(NC(=O)[C@H]3CCCNC3)cc12` [Compound 177, (S)—N-(5-(tert-butylamino)-7-cyano-2,6-naphthyridin-3-yl)piperidine-3-carboxamide]: the IC50 was more than 1000 nM in assay [1] and 19 nM in assay [2].
For `CC(C)Nc1nc(C#N)cc2cnc(N[C@@H]3CCNC3)nc12` [Compound 113, (R)-8-(isopropylamino)-2-(pyrrolidin-3-ylamino)pyrido[3,4-d]pyrimidine-6-carbonitrile], the IC50 in assay [1] was 400 to 1000 nM; in assay [2], 9 nM.
As for `CC(C)Nc1nc(C#N)cc2cnc(N[C@H]3CC[C@@H](O)CC3)nc12` [Compound 125, 2-(((1s,4s)-4-hydroxycyclohexyl)amino)-8-(isopropylamino)pyrido[3,4-d]pyrimidine-6-carbonitrile], the IC50 is more than 1000 nM in assay [1] and 9 nM in assay [2].
The like results for `CC(C)Nc1nc(C#N)cc2cnc(N[C@@H]3C[C@H]4COC[C@@H](C3)N4)nc12` [Compound 139, 2-(((1R,5S,7r)-3-oxa-9-azabicyclo[3.3.1]nonan-7-yl)amino)-8-(isopropylamino)pyrido[3,4-d]pyrimidine-6-carbonitrile] were, in that order, more than 1000 nM and 6 nM.
With `CC(C)(C)Nc1nc(C#N)cc2cnc(NC(=O)[C@@H]3CCCNC3)cc12` [Compound 178, (R)—N-(5-(tert-butylamino)-7-cyano-2,6-naphthyridin-3-yl)piperidine-3-carboxamide], the IC50 in assay [1] was 400 to 1000 nM; in assay [2], 7 nM.
The like results for `CC(C)Nc1nc(C#N)cc2cnc(N[C@@H]3CCCNCC3)nc12` [Compound 132, (R)-2-(azepan-4-ylamino)-8-(isopropylamino)pyrido[3,4-d]pyrimidine-6-carbonitrile] were, in that order, 400 to 1000 nM and 12 nM.
As for `CC(C)Nc1nc(C#N)cc2cnc(NC3CNC3)nc12` [Compound 129, 2-(azetidin-3-ylamino)-8-(isopropylamino)pyrido[3,4-d]pyrimidine-6-carbonitrile], the results for the IC50 in assay [1] and in assay [2] were more than 1000 nM and 7 nM, respectively.
For the compound `CC(C)(C)Nc1nc(C(N)=O)cc2cnc(N[C@H]3C[C@H](N)C3)nc12` [Compound C19, 2-(((1r,3r)-3-aminocyclobutyl)amino)-8-(tert-butylamino)pyrido[3,4-d]pyrimidine-6-carboxamide], the figures for the IC50 in assay [1] and in assay [2] were 400 to 1000 nM and 10 nM, respectively.
The like results for `CC(C)Nc1nc(C#N)cc2cnc(N[C@@H]3CCOC3)nc12` [Compound 119, (R)-8-(isopropylamino)-2-((tetrahydrofuran-3-yl)amino)pyrido[3,4-d]pyrimidine-6-carbonitrile] were, in that order, more than 1000 nM and 6 nM.
Consider `N#Cc1cc2cnc(N[C@H]3CCCNC3)cc2c(C2CC2)n1` [Compound 194, (S)-1-cyclopropyl-7-(piperidin-3-ylamino)-2,6-naphthyridine-3-carbonitrile], for which the IC50 in assay [1] was more than 1000 nM; in assay [2], 15 nM.
For `CC(C)Nc1nc(C#N)cc2cnc(N[C@H]3CCNC3)nc12` [Compound 112, (S)-8-(isopropylamino)-2-(pyrrolidin-3-ylamino)pyrido[3,4-d]pyrimidine-6-carbonitrile] the same measures were 400 to 1000 nM and 17 nM.
As to `C=Cc1cc2cnc(NC(=O)[C@H]3CCC[C@@H](NC(C)=O)C3)nc2c(NC(C)C)n1` [Compound 10, (1S,3R)-3-acetamido-N-(8-(isopropylamino)-6-vinylpyrido[3,4-d]pyrimidin-2-yl)cyclohexane-1-carboxamide], the IC50 was more than 1000 nM in assay [1] and 46 nM in assay [2].
The like results for `CC(=O)N1CCN([C@H]2C[C@@H](Nc3ncc4cc(C#N)nc(NC(C)C)c4n3)C2)CC1` [Compound C33, 2-(((1s,3s)-3-(4-acetylpiperazin-1-yl)cyclobutyl)amino)-8-(isopropylamino)pyrido[3,4-d]pyrimidine-6-carbonitrile] were, in that order, more than 1000 nM and 19 nM.
In the case of `CC(C)(C)Nc1nc(C(F)F)cc2cnc(N[C@H]3[C@@H]4CNC[C@@H]43)nc12` [Compound C4, N^2-((1R,5S,6s)-3-azabicyclo[3.1.0]hexan-6-yl)-N^8-(tert-butyl)-6-(difluoromethyl)pyrido[3,4-d]pyrimidine-2,8-diamine], the IC50 in assay [1] is 400 to 1000 nM; in assay [2] it was 9 nM.
With `CNc1cc2cnc(NC(=O)[C@H]3CCC[C@@H](NC(C)=O)C3)nc2c(NC(C)C)n1` [Compound 11, (1S,3R)-3-acetamido-N-(8-(isopropylamino)-6-(methylamino)pyrido[3,4-d]pyrimidin-2-yl)cyclohexane-1-carboxamide], the IC50 in assay [1] is more than 1000 nM.
On to `CC(C)Nc1nc(C#N)cc2cnc(N[C@]3(C)C[C@@H](O)C3)nc12` [Compound C10, 2-(((1r,3r)-3-hydroxy-1-methylcyclobutyl)amino)-8-(isopropylamino)pyrido[3,4-d]pyrimidine-6-carbonitrile], for which the figures for the IC50 in assay [1] and in assay [2] were more than 1000 nM and 8 nM, respectively.
Take `CC(C)Nc1nc(C#N)cc2cnc(N[C@]3(C)C[C@@H](N)C3)nc12` [Compound C27, 2-(((1r,3r)-3-amino-1-methylcyclobutyl)amino)-8-(isopropylamino)pyrido[3,4-d]pyrimidine-6-carbonitrile]: the IC50 is more than 1000 nM in assay [1] and 19 nM in assay [2].
In the case of `CC(=O)N[C@@H]1CCC[C@H](C(=O)Nc2ncc3cc(C(F)F)nc(NC(C)C)c3n2)C1` [Compound 7, (1S,3R)-3-acetamido-N-(6-(difluoromethyl)-8-(isopropylamino)pyrido[3,4-d]pyrimidin-2-yl)cyclohexane-1-carboxamide], the IC50 in assay [1] was more than 1000 nM; in assay [2] it was 44 nM.
The like results for `C[C@]1(N)C[C@H](Nc2cc3c(NC4CC4)nc(C#N)cc3cn2)C1` [Compound 210, 7-((trans)-3-amino-3-methylcyclobutyl)amino-1-(cyclopropylamine)-2,6-naphthyridine-3-carbonitrile] were, in that order, 400 to 1000 nM and 12 nM.
For `CC(C)Nc1nc(C#N)cc2cnc(N[C@@H]3CCCOC3)nc12` [Compound 117, (R)-8-(isopropylamino)-2-((tetrahydro-2H-pyran-3-yl)amino)pyrido[3,4-d]pyrimidine-6-carbonitrile] the same measures were more than 1000 nM and 6 nM.
For `CC(C)Nc1nc(C#N)cc2cnc(N[C@H]3CC[C@@H](N)CC3)nc12` [Compound 137, 2-(((1s,4s)-4-aminocyclohexyl)amino)-8-(isopropylamino)pyrido[3,4-d]pyrimidine-6-carbonitrile] the same measures were more than 1000 nM and 10 nM.
Take `CC(C)Nc1nc(C#N)cc2cnc(NC3CCCCC3O)cc12` (stereo not shown) [Compound 143, 7-((2-hydroxycyclohexyl)amino)-1-(isopropylamino)-2,6-naphthyridine-3-carbonitrile]: the IC50 was more than 1000 nM in assay [1] and 12 nM in assay [2].
As for `CC(C)Nc1nc(C#N)cc2cnc(NC3CCCC3N)cc12` (stereo not shown) [Compound 146, 7-((2-aminocyclopentyl)amino)-1-(isopropylamino)-2,6-naphthyridine-3-carbonitrile], the values for the IC50 in assay [1] and in assay [2] were more than 1000 nM and 9 nM, respectively.
With `CC(=O)N1CCC[C@H](C(=O)Nc2ncc3cc(C#N)nc(NC(C)C)c3n2)C1` [Compound 6, (S)-1-acetyl-N-(6-cyano-8-(isopropylamino)pyrido[3,4-d]pyrimidin-2-yl)piperidine-3-carboxamide], the IC50 in assay [1] was more than 1000 nM.
`CC(C)Nc1nc(C#N)cc2cnc(NC3CCCS(=O)(=O)C3)nc12` (stereo not shown) [Compound 121, 2-((1,1-dioxidotetrahydro-2H-thiopyran-3-yl)amino)-8-(isopropylamino)pyrido[3,4-d]pyrimidine-6-carbonitrile]: the results for the IC50 in assay [1] and in assay [2] were 400 to 1000 nM and 14 nM, respectively.
On to `CC(C)Nc1nc(C#N)cc2cnc(N[C@H]3CCC[C@H]3N)cc12` [Compound 158, 7-(((1S,2R)-2-aminocyclopentyl)amino)-1-(isopropylamino)-2,6-naphthyridine-3-carbonitrile], for which the IC50 is 400 to 1000 nM in assay [1] and 3 nM in assay [2].
For the compound `CCc1cc2cnc(NC(=O)[C@H]3CCC[C@@H](NC(C)=O)C3)nc2c(NC(C)C)n1` [Compound 9, (1S,3R)-3-acetamido-N-(6-ethyl-8-(isopropylamino)pyrido[3,4-d]pyrimidin-2-yl)cyclohexane-1-carboxamide], in assay [1], the IC50 is more than 1000 nM.

The record behind these values is patent US20250163043A1 (TRANSTHERA SCIENCES (NANJING), INC., priority 2021, published 2025).
